Results taken from PubChem BioAssay AID1963836 (Molecular Pharmacology Branch, DTP, NCI, 2024).
pIC50: −log10 of the molar value.

System: 857933-349-R-J2-PDC complex spheroid viability
Assay: Anticancer human tumor 857933-349-R-J2-PDC patient-derived colon adenocarcinoma cell line growth inhibition [POLQ]
Details: for pIC50: curve of first compound; for viability, T/C: stronger effect = lower value; active = viability on the fitted dose curve at most 10% of control; inactive = the rest
Outline: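 Growth inhibition in 3D: complex spheroids (tumor PDC, HUVEC, MSC) treated with POLQ inhibitor combinations; where Cmax unknown, highest tested concentration 10 microM, except SN-38 at 1 microM.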

[1] = second compound 0.0316 µM, first compound 0.0316 µM
[2] = second compound 0.0316 µM, first compound 0.1 µM
[3] = second compound 0.0316 µM, first compound 0.316 µM
[4] = second compound 0.0316 µM, first compound 1 µM
[5] = second compound 0.0316 µM, first compound 3.16 µM
[6] = second compound 0.0316 µM, first compound 10 µM
[7] = second compound 0.1 µM, first compound 0.0316 µM
[8] = second compound 0.1 µM, first compound 0.1 µM
[9] = second compound 0.1 µM, first compound 0.316 µM
[10] = second compound 0.1 µM, first compound 1 µM
[11] = second compound 0.1 µM, first compound 3.16 µM
[12] = second compound 0.1 µM, first compound 10 µM
[13] = second compound 0.316 µM, first compound 0.0316 µM
[14] = second compound 0.316 µM, first compound 0.1 µM
[15] = second compound 0.316 µM, first compound 0.316 µM
[16] = second compound 0.316 µM, first compound 1 µM
[17] = second compound 0.316 µM, first compound 3.16 µM
[18] = second compound 0.316 µM, first compound 10 µM
[19] = second compound 1 µM, first compound 0.0316 µM
[20] = second compound 1 µM, first compound 0.1 µM
[21] = second compound 1 µM, first compound 0.316 µM
[22] = second compound 1 µM, first compound 1 µM
[23] = second compound 1 µM, first compound 3.16 µM
[24] = second compound 1 µM, first compound 10 µM
[25] = second compound 3.16 µM, first compound 0.0316 µM
[26] = second compound 3.16 µM, first compound 0.1 µM
[27] = second compound 3.16 µM, first compound 0.316 µM
[28] = second compound 3.16 µM, first compound 1 µM
[29] = second compound 3.16 µM, first compound 3.16 µM
[30] = second compound 3.16 µM, first compound 10 µM
[31] = second compound 10 µM, first compound 0.0316 µM
[32] = second compound 10 µM, first compound 0.1 µM
[33] = second compound 10 µM, first compound 0.316 µM
[34] = second compound 10 µM, first compound 1 µM
[35] = second compound 10 µM, first compound 3.16 µM
[36] = second compound 10 µM, first compound 10 µM
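Also: spheroids exposed to compounds for seven days before readout.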

CC1COCCN1c1cc(-c2ccnn2C)c2ccnc(-c3ccn[nH]3)c2n1 (centres undefined) + Nc1ccc(C#CCN(C(=O)Cc2ncc(C(F)(F)F)cc2C(F)(F)F)c2ccc(F)cc2)nn1
6.09: pIC50 (second compound 0.0316 µM)
6.13: pIC50 (second compound 0.316 µM)
6.31: pIC50 (second compound 0.1 µM)
6.19: pIC50 (second compound 10 µM)
inactive: viability, T/C [1] 76.4% | viability, T/C [2] 65.6% | viability, T/C [3] 62.1% | viability, T/C [4] 50.3% | viability, T/C [5] 32.5% | viability, T/C [6] 43.8% | viability, T/C [7] 71.5% | viability, T/C [8] 65.3% | viability, T/C [9] 53% | viability, T/C [10] 47.9% | viability, T/C [11] 30.9% | viability, T/C [12] 42.8% | viability, T/C [13] 81.1% | viability, T/C [14] 78.5% | viability, T/C [15] 56.2% | viability, T/C [16] 51.4% | viability, T/C [17] 37.3% | viability, T/C [18] 41.3% | viability, T/C [19] 74.9% | viability, T/C [20] 61.9% | viability, T/C [21] 51.5% | viability, T/C [22] 49% | viability, T/C [23] 36.9% | viability, T/C [24] 45.6% | viability, T/C [25] 76.4% | viability, T/C [26] 68.2% | viability, T/C [27] 47.4% | viability, T/C [28] 42.9% | viability, T/C [29] 42.8% | viability, T/C [30] 46.7% | viability, T/C [31] 78.2% | viability, T/C [32] 62.1% | viability, T/C [33] 54.8% | viability, T/C [34] 45.3% | viability, T/C [35] 47.2% | viability, T/C [36] 45.5%
6.35: pIC50 (second compound 1 µM)
6.57: pIC50 (second compound 3.16 µM)

CC1COCCN1c1cc(C2(S(C)(=N)=O)CC2)nc(-c2ccnc3[nH]ccc23)n1 (centres undefined) + Nc1ccc(C#CCN(C(=O)Cc2ncc(C(F)(F)F)cc2C(F)(F)F)c2ccc(F)cc2)nn1
5.20: pIC50 (second compound 0.0316 µM)
inactive: viability, T/C [1] 85.9% | viability, T/C [2] 110% | viability, T/C [3] 107% | viability, T/C [4] 81.7% | viability, T/C [5] 60.8% | viability, T/C [6] 43.2% | viability, T/C [7] 95.3% | viability, T/C [8] 104% | viability, T/C [9] 88.8% | viability, T/C [10] 79% | viability, T/C [11] 63.4% | viability, T/C [12] 45.3% | viability, T/C [13] 108% | viability, T/C [14] 107% | viability, T/C [15] 85.4% | viability, T/C [16] 83.2% | viability, T/C [17] 64.2% | viability, T/C [18] 43.2% | viability, T/C [19] 100% | viability, T/C [20] 102% | viability, T/C [21] 90.1% | viability, T/C [22] 74.6% | viability, T/C [23] 57.6% | viability, T/C [24] 45.4% | viability, T/C [25] 96.2% | viability, T/C [26] 88.1% | viability, T/C [27] 89.3% | viability, T/C [28] 84.7% | viability, T/C [29] 59.9% | viability, T/C [30] 45.4% | viability, T/C [31] 96.5% | viability, T/C [32] 91.3% | viability, T/C [33] 93.5% | viability, T/C [34] 71.4% | viability, T/C [35] 71.1% | viability, T/C [36] 49.9%
< 5.00: pIC50 (second compound 10 µM)
5.13: pIC50 (second compound 0.1 µM)
5.19: pIC50 (second compound 1 µM)
5.16: pIC50 (second compound 0.316 µM) | pIC50 (second compound 3.16 µM)
